Among the data in US20230136562A1, “SPIROUREA DERIVATIVES” (Idorsia Pharmaceuticals Ltd, priority 2020, published 2023) are IC50 values, retold here.

This assay concerns primary neuronal cultures from embryonic rat brains. Put plainly: Rat oscillation assay (FLIPR, neuronal calcium oscillations). Format: cell-based. As for the experimental part: A) Rat Oscillation Assay:
This assay is a functional phenotypic assay designed to mimic epileptic seizures using primary neuronal cultures from embryonic rat brains, which form a functional neuronal network that generate synchronized intracellular calcium concentration oscillations when cultured at high density in 384-well plate. The epileptic phenotype is induced by incubating the neurons in magnesium-free assay buffer, that results in increased probability of NMDA receptor activation, leading to an increased frequency and amplitude of intracellular calcium oscillations. Once neurons are incubated with the calcium indicator dye Fluo-8 AM (Tebu-bio), neuronal calcium oscillations can be monitored in real time using FLIPR® Tetra (fluorometric plate reader, Molecular Devices). With these recordings, the effect of anti-epileptic drugs can be quantified. The anti-epileptic effect of compounds, which activate directly or indirectly the Kv7 channels can be modulated by the Kv7 channel blocker XE-991. The assay was performed as described previously (Pacico N, Mingorance-Le Meur A. New In Vitro Phenotypic Assay for Epilepsy: Fluorescent Measurement of Synchronized Neuronal Calcium Oscillations. PLoS ONE 9(1) 2014) with modifications described hereafter.
Animal care followed standard procedures in accordance with swiss institutional guidelines. Dissociated neuronal cultures were obtained from cerebral cortices of embryonic Wistar rats at embryonic stage E18 (Charles River). The uterine horns were removed by caesarian surgery from deeply anesthetized rats (Isofurane) and sacrificed by decapitation. The embryos were decapitated by closing forceps. The brains were isolated and dissected one by one in ice-cold PBS (Life Technologies) under optical control using a binocular. Meninges, olfactory bulbs, and basal ganglia were removed. Cortical hemispheres (still including the hippocampus) were cut in small pieces with tweezers and placed on ice in pre-chilled Hibernate-E medium (Life technology). The hemispheres were then incubated in 10 mL of Hibernate-E containing 15 U/mL papain (Worthington) for 25 min at 30° C. with gentle mixing every 10 min. Genomic DNA was then digested by prolonging the incubation during 10 min at 37° C. in presence of 4 U/mL rDNase I (Ambion). The obtained suspension was then centrifuged at 800 g for 5 min and the cell pellet was resuspended in 2 mL Hibernate-E and gently dissociated by pipetting up and down 10 times with a plastic Pasteur pipette resulting in a homogenous cell suspension. This suspension was immediately filtered through a 70 µm cell strainer (MACS® SmartStrainer, Miltenyi), collected in 10 mL Hibernate-E and centrifuged at 800 g for 5 min. The cell pellet was resuspended in Neurobasal medium, supplemented with 2% B-27, 0.5 mM Glutamax-I, 100 U/mL penicillin, 100 µg/mL streptomycin (Life Technologies) and diluted at the final concentration of 300′000 cells/mL. One day before plating the cells, 384-well plates were coated with 25 μL/well of 0.1% poly-L-lysine solution (Sigma), incubated overnight at 37° C., washed two times with sterile distilled water and allowed to dry at room temperature for >2 h. The neurons were seeded at a density of 15′000 cells/well in 50 μL/well in a 384-well black, clear-bottomed plates (Corning) and subsequently maintained in an incubator at 37° C., 5% CO2 and 95% humidity for 8 to 10 days. After 3 and 7 days, 40% of media was renewed under sterile conditions.
Protocol Rat Oscillation Assay
Neurons seeded in the assay plates were washed with Hank's balanced salt solution (HBSS) devoid of Ca^2+ and Mg^2+, supplemented with 20 mM HEPES (Life Technologies) and 2 mM CaCl2 (Sigma), pH 7.4 (hereafter called Assay buffer) using a Biotek EL406 plate washer. Neurons were loaded with 1 μM Fluo-8 AM in Assay buffer for 15 min at 37° C., 5% CO2. […]

Setting [1] is: Rattus norvegicus, 20 min, AUC of fluorescence measured 20 min after compound addition, read-out: FLIPR: IC50 [nM] 20 min.
[2] abbreviates: Rattus norvegicus, Acute phase, ratio of AUC fluorescence before and after compound addition, read-out: FLIPR: IC50 [nM] acute.
Setting [3] is: AUC of fluorescence measured 20 min after compound addition, read-out: FLIPR: IC50 [nM] 20 min.
[4] abbreviates: Acute phase, ratio of AUC fluorescence before and after compound addition, read-out: FLIPR: IC50 [nM] acute.

The structures appear in SMILES notation. Like-named read-outs stand apart in the source and are kept apart here.

The IC50 is the concentration that gives 50% inhibition. With `CC(NC(=O)NC1CC2(CC(I)C2)C1)c1ccnc(OC(F)F)c1` (racemic) [Example 166, (±)-1-[1-(2-Difluoromethoxy-pyridin-4-yl)-ethyl]-3-(6-iodo-spiro[3.3]hept-2-yl)-urea], the concentration for half-maximal inhibition (IC50) reads like this: under setting [1], 474 nM; under setting [2], 889 nM.

Take `COCC(NC(=O)NC1CC2(CCC2)C1)c1cccc(OCC(F)(F)F)c1` (racemic) [Example 91, (±)-1-{2-Methoxy-1-[3-(2,2,2-trifluoro-ethoxy)-phenyl]-ethyl}-3-spiro[3.3]hept-2-yl-urea]: the IC50 by setting is: under setting [1], 1.4 nM; under setting [2], 3.4 nM.

With `CN(C)CC(NC(=O)NC1CC2(CCC2)C1)c1ccnc(OCC(F)(F)F)c1` (racemic) [Example 94, (±)-1-{2-Dimethylamino-1-[2-(2,2,2-trifluoro-ethoxy)-pyridin-4-yl]-ethyl}-3-spiro[3.3]hept-2-yl-urea], the IC50 turned out to be 117 nM under setting [1] and 197 nM under setting [2].

For `CC(NC(=O)NC1CC2(CCC2)C1)c1ccc2c(c1)OC(F)(F)O2` (racemic) [Example 65, (±)-1-[1-(2,2-Difluoro-benzo[1,3]dioxol-5-yl)-ethyl]-3-spiro[3.3]hept-2-yl-urea], the IC50 by setting is: under setting [1], 10 nM; under setting [2], 6.7 nM.

`CC(NC(=O)NC1CC2(CCC2)C1)c1cccc2c1OC(F)(F)O2` (racemic) [Example 47, (±)-1-[1-(2,2-Difluoro-benzo[1,3]dioxol-4-yl)-ethyl]-3-spiro[3.3]hept-2-yl-urea]: the IC50 is, setting by setting: under setting [1], 222 nM; under setting [2], 103 nM.

As to `COCC(Oc1cc(CNC(=O)NC2CC3(CCC3)C2)ccn1)C(F)(F)F` (single isomer, unassigned) [Example 171, 1-Spiro[3.3]hept-2-yl-3-[2-(2,2,2-trifluoro-1-methoxymethyl-ethoxy)-pyridin-4-ylmethyl]-urea], the IC50 was 377 nM under setting [3] and 252 nM under setting [4].

Regarding `O=C(NC1CC2(CCC2)C1)NC(c1cccc(C(F)(F)F)c1)c1c[nH]nn1` (racemic) [Example 162, (±)-1-Spiro[3.3]hept-2-yl-3-[(1H-[1,2,3]triazol-4-yl)-(3-trifluoromethyl-phenyl)-methyl]-urea], the half-maximal inhibitory concentration (IC50) is, setting by setting: under setting [1], 124 nM; under setting [2], 120 nM.

As for `O=C(NCc1cccc(C(F)(F)F)c1Cl)NC1CC2(CC2)C1` [Example 150, 1-(2-Chloro-3-trifluoromethyl-benzyl)-3-spiro[2.3]hex-5-yl-urea], the half-inhibitory concentration (IC50) runs as follows: under setting [1], 1160 nM; under setting [2], 1080 nM.

On to `CS(=O)(=O)CC(NC(=O)NC1CC2(CCC2)C1)c1cccc(OC(F)(F)F)c1` (racemic) [Example 64, (±)-1-[2-Methanesulfonyl-1-(3-trifluoromethoxy-phenyl)-ethyl]-3-spiro[3.3]hept-2-yl-urea], for which the half-inhibitory concentration (IC50) was determined as 47 nM under setting [1] and 44 nM under setting [2].

`Cc1ccc(C(C)NC(=O)NC2CC3(CCC3)C2)cc1OCC(F)(F)F` (racemic) [Example 26, (±)-1-{1-[4-Methyl-3-(2,2,2-trifluoro-ethoxy)-phenyl]-ethyl}-3-spiro[3.3]hept-2-yl-urea]: the concentration for half-maximal inhibition (IC50) is, setting by setting: under setting [1], 206 nM; under setting [2], 190 nM.

Take `O=C(NCc1cccc(OC(F)(F)F)c1F)NC1CC2(CCC2)C1` [Example 8, 1-(2-Fluoro-3-trifluoromethoxy-benzyl)-3-spiro[3.3]hept-2-yl-urea]: the IC50 reads like this: under setting [1], 35 nM; under setting [2], 78 nM.

Turning to `COC[C@H](NC(=O)NC1CC2(CC2)C1)c1ccnc(OCC(F)(F)F)c1` (single isomer, unassigned) [Example 188], the IC50 runs as follows: under setting [1], 5.6 nM; under setting [2], 5.3 nM.

For the compound `O=C(NCc1cccc2c1OC(F)(F)O2)NC1CC2(CCC2)C1` [Example 46, 1-(2,2-Difluoro-benzo[1,3]dioxol-4-ylmethyl)-3-spiro[3.3]hept-2-yl-urea], the half-maximal inhibitory concentration (IC50) runs as follows: under setting [1], 285 nM; under setting [2], 234 nM.

`O=C(NC1CC2(CCC2)C1)NC(c1cccc(OC(F)F)c1)C1CC1` (racemic) [Example 25, (±)-1-[Cyclopropyl-(3-difluoromethoxy-phenyl)-methyl]-3-spiro[3.3]hept-2-yl-urea]: the IC50 is, setting by setting: under setting [1], 19 nM; under setting [2], 10 nM.

Consider `O=C(NC1CC2(CC2)C1)NC(CO)c1cc(OCC(F)(F)F)ncn1` (racemic) [Example 122, (±)-1-{2-Hydroxy-1-[6-(2,2,2-trifluoro-ethoxy)-pyrimidin-4-yl]-ethyl}-3-spiro[2.3]hex-5-yl-urea], for which the IC50 under setting [1] amounted to 658 nM and the IC50 under setting [2] amounted to 339 nM.

As for `CC(Oc1nccc(CNC(=O)NC2CC3(CCC3)C2)n1)C(F)(F)F` (single isomer, unassigned) [Example 181, 1-Spiro[3.3]hept-2-yl-3-[2-(2,2,2-trifluoro-1-methyl-ethoxy)-pyrimidin-4-ylmethyl]-urea], the IC50 under setting [3] worked out at 564 nM and the IC50 under setting [4] stood at 404 nM.

For the compound `C[C@H](NC(=O)NC1CC2(CC2)C1)c1ccnc(OC(F)F)c1` (single isomer, unassigned) [Example 189], the IC50 under setting [1] came to 196 nM and the IC50 under setting [2] stood at 221 nM.

As for `CC(Oc1cc(F)cc(CNC(=O)NC2CC3(CCC3)C2)c1)C(F)(F)F` (racemic) [Example 110, (±)-1-[3-Fluoro-5-(2,2,2-trifluoro-1-methyl-ethoxy)-benzyl]-3-spiro[3.3]hept-2-yl-urea], the IC50 is 62 nM under setting [1] and 88 nM under setting [2].

Turning to `CC(NC(=O)NC1CC2(CCC2)C1)c1ccnc(OC(C)C(F)(F)F)c1` (centres unmarked) [Example 101, 1-(Spiro[3.3]heptan-2-yl)-3-(1-(2-((1,1,1-trifluoropropan-2-yl)oxy)pyridin-4-yl)ethyl)urea], the IC50 is 1.6 nM under setting [1] and 2.4 nM under setting [2].

On to `CC(NC(=O)NC1CC2(CCC2)C1)c1cc(Cl)cc(OCC(F)(F)F)c1` (racemic) [Example 33, (±)-1-{1-[3-Chloro-5-(2,2,2-trifluoro-ethoxy)-phenyl]-ethyl}-3-spiro[3.3]hept-2-yl-urea], for which the IC50 stood at 65 nM under setting [1] and 80 nM under setting [2].

Take `COCC(NC(=O)NC1CC2(CC2)C1)c1ccnc(OCC(F)(F)F)c1` (racemic) [Example 154, (±)-1-{2-Methoxy-1-[2-(2,2,2-trifluoro-ethoxy)-pyridin-4-yl]-ethyl}-3-spiro[2.3]hex-5-yl-urea]: the IC50 is 24 nM under setting [1] and 8.1 nM under setting [2].

Take `CC(NC(=O)NC1CC2(CCC2)C1)c1ccnc(OC(F)F)c1` (racemic) [Example 100, (±)-1-[1-(2-Difluoromethoxy-pyridin-4-yl)-ethyl]-3-spiro[3.3]hept-2-yl-urea]: the IC50 runs as follows: under setting [1], 3.6 nM; under setting [2], 5.9 nM.

As for `O=C(NC1CC2(CCC2)C1)NC1(c2cccc(C(F)(F)F)c2)COC1` [Example 44, 1-Spiro[3.3]hept-2-yl-3-[3-(3-trifluoromethyl-phenyl)-oxetan-3-yl]-urea], the IC50 runs as follows: under setting [1], 100 nM; under setting [2], 78 nM.

As for `Cc1c(OCC(F)(F)F)cccc1C(C)NC(=O)NC1CC2(CCC2)C1` (racemic) [Example 29, (±)-1-{1-[2-Methyl-3-(2,2,2-trifluoro-ethoxy)-phenyl]-ethyl}-3-spiro[3.3]hept-2-yl-urea], the 50% inhibitory concentration (IC50) under setting [1] is 253 nM and the IC50 under setting [2] is 452 nM.

As for `CNC(=O)C(NC(=O)NC1CC2(CCC2)C1)c1cccc(C(F)(F)F)c1` (racemic) [Example 63, (±)-N-Methyl-2-(3-spiro[3.3]hept-2-yl-ureido)-2-(3-trifluoromethyl-phenyl)-acetamide], the IC50 is, setting by setting: under setting [1], 92 nM; under setting [2], 46 nM.
